According to the supplement of paper PMC10307832:

Key:
Assay in all cases: relative viability (nuclei count vs DMSO), 5 days (fraction); higher = more cells survive
[1] = compound: CC1(C)CNc2cc(NC(=O)c3cccnc3NCc3ccncc3)ccc21 [Motesanib] + COc1cccc2cc(-c3nc([C@H]4CC[C@H](C(=O)O)CC4)n4ncnc(N)c34)[nH]c12 [OSI-027] (partner 0.5 µM)
In short: (§1)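 Relative viability was taken as the ratio of nuclei in treated wells to nuclei in vehicle wells. Lung cancer cell lines in 1536-well plates received compounds by pin tool one day after seeding, either one drug alone or a fixed anchor-drug dose plus five library-drug doses (not always all listed) in √10 steps. Nuclei were counted on 4× images after 5 days of treatment, and values are medians of duplicate plates.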

[2] = compound: CC1(C)CNc2cc(NC(=O)c3cccnc3NCc3ccncc3)ccc21 [Motesanib] + C[C@]1(O)C[C@@H](c2nc(-c3ccc4ccc(-c5ccccc5)nc4c3)c3c(N)nccn32)C1 [Linsitinib] (partner 1 µM)
In short: as §1

[3] = compound: CC1(C)CNc2cc(NC(=O)c3cccnc3NCc3ccncc3)ccc21 [Motesanib] + N=C(N)NC(=N)NCCc1ccccc1 [Phenformin] (partner 250 µM)
In short: as §1

[4] = compound: C[C@@]1(C(=O)Nc2ccc(F)nc2)CCCN1c1nc(Nc2cc(C3CC3)n[nH]2)c2cccn2n1 + CCNC(=O)c1noc(-c2cc(C(C)C)c(O)cc2O)c1-c1ccc(CN2CCOCC2)cc1 [Luminespib] (partner 0.01 µM)
In short: as §1

| Cell Line | relative viability ([1]; first compound 0.01 µM) | relative viability ([1]; first compound 0.03162 µM) | relative viability ([1]; first compound 0.1 µM) | relative viability ([1]; first compound 0.3162 µM) | relative viability ([1]; first compound 1 µM) | relative viability ([2]; first compound 0.01 µM) | relative viability ([2]; first compound 0.03162 µM) | relative viability ([2]; first compound 0.1 µM) | relative viability ([2]; first compound 0.3162 µM) | relative viability ([2]; first compound 1 µM) | relative viability ([3]; first compound 0.01 µM) | relative viability ([3]; first compound 0.03162 µM) | relative viability ([3]; first compound 0.1 µM) | relative viability ([3]; first compound 0.3162 µM) | relative viability ([3]; first compound 1 µM) | relative viability ([4]; first compound 0.04 µM) | relative viability ([4]; first compound 0.1265 µM) | relative viability ([4]; first compound 0.4 µM) | relative viability ([4]; first compound 1.265 µM) |
| --- | --- | --- | --- | --- | --- | --- | --- | --- | --- | --- | --- | --- | --- | --- | --- | --- | --- | --- | --- |
| SK-MES-1 | 0.611 | 0.59 | 0.661 | 0.648 | 0.564 | 1.06 | 1.09 | 1.1 | 1.08 | 1.08 | 0.624 | 0.588 | 0.714 | 0.703 | 0.658 | 0.666 | 0.664 | 0.763 | 0.609 |
| NCI-H2085 | 0.812 | 0.892 | 0.753 | 0.67 | 0.691 | 0.936 | 0.853 | 1.13 | 0.996 | 0.886 | 0.745 | 0.759 | 0.756 | 0.781 | 0.759 | 0.431 | 0.405 | 0.365 | 0.54 |
| SW 1573 | 0.561 | 0.583 | 0.549 | 0.736 | 0.709 | 0.815 | 0.825 | 0.65 | 0.773 | 0.949 | 0.468 | 0.343 | 0.388 | 0.36 | 0.421 | 0.224 | 0.185 | 0.182 | 0.143 |
| NCI-H727 | 0.539 | 0.767 | 0.833 | 0.555 | 0.425 | 0.3 | 0.329 | 0.304 | 0.292 | 0.15 | 0.408 | 0.613 | 0.664 | 0.587 | 0.487 | 0.34 | 0.319 | 0.249 | 0.249 |
| NCI-H441 | 0.557 | 0.619 | 0.608 | 0.577 | 0.547 | 0.519 | 0.545 | 0.626 | 0.603 | 0.875 | 0.895 | 0.873 | 0.845 | 0.913 | 0.822 | 0.258 | 0.175 | 0.221 | 0.267 |
| LOU-NH91 | 0.717 | 0.764 | 0.721 | 0.722 | 0.743 | 1.05 | 0.996 | 0.942 | 0.91 | 0.996 | 0.672 | 0.736 | 0.78 | 0.75 | 0.78 | 0.335 | 0.353 | 0.305 | 0.335 |
| NCI-H3122 | 0.836 | 0.962 | 0.933 | 1.08 | 1.23 | 0.986 | 0.961 | 0.991 | 1.01 | 0.965 | 0.351 | 0.338 | 0.409 | 0.427 | 0.375 | 0.0763 | 0.0863 | 0.0793 | 0.0682 |
| NCI-H460 | 0.616 | 0.633 | 0.619 | 0.635 | 0.632 | 0.836 | 0.817 | 0.726 | 0.899 | 0.744 | 0.478 | 0.455 | 0.54 | 0.549 | 0.527 | 0.0318 | 0.0246 | 0.0368 | 0.0359 |
| NCI-H650 | 0.529 |  | 0.539 | 0.574 | 0.537 | 0.779 | 0.833 | 0.936 | 1.02 | 0.795 | 0.457 |  | 0.492 | 0.544 | 0.434 | 0.797 | 0.426 | 0.536 | 0.499 |
| NCI-H661 | 0.73 | 0.741 | 0.848 | 0.749 | 0.576 | 0.518 | 0.528 | 0.559 | 0.593 | 0.495 | 0.292 | 0.268 | 0.28 | 0.292 | 0.268 | 0.973 | 1.06 | 1.05 | 1.02 |
| NCI-H1793 | 0.26 | 0.272 | 0.261 | 0.284 | 0.302 | 0.877 | 0.802 | 0.796 | 0.793 | 0.76 | 0.295 | 0.313 | 0.307 | 0.39 | 0.362 | 0.581 | 0.18 |  | 0.604 |
| NCI-H1734 | 0.659 | 0.602 |  | 0.58 | 0.527 | 0.843 | 0.951 | 0.897 | 0.976 | 1.01 | 0.36 | 0.368 |  | 0.36 | 0.468 | 0.201 | 0.161 | 0.159 | 0.157 |
| LXF-289 | 0.708 | 0.841 | 0.857 | 0.912 | 0.886 | 0.958 | 0.974 | 1.02 | 1 | 1.02 | 0.526 | 0.478 | 0.573 | 0.529 | 0.521 | 0.64 | 0.563 | 0.511 | 0.611 |
| H3255 | 0.608 | 0.601 | 0.603 | 0.558 | 0.635 | 0.949 | 1.02 | 0.913 | 1.06 | 0.871 | 0.357 | 0.367 | 0.364 | 0.394 | 0.35 | 1.02 | 0.982 | 0.89 | 0.811 |
| 201T | 0.683 | 0.726 | 0.779 | 0.506 | 0.69 | 1 | 1.09 | 1.03 | 1.05 | 1.02 | 0.377 | 0.44 | 0.485 | 0.48 | 0.427 | 0.878 | 0.84 | 0.799 | 1.02 |
| NCI-H2126 | 0.815 | 0.737 | 0.674 | 0.774 | 0.781 | 0.736 | 0.73 | 0.719 | 0.74 | 0.701 | 0.525 | 0.557 | 0.511 | 0.567 | 0.579 | 0.733 | 0.429 | 0.542 | 0.52 |
| HOP-62 | 0.843 | 0.912 | 0.839 | 0.92 | 0.815 | 0.732 | 0.956 | 0.806 | 1.05 | 1.03 | 0.641 | 0.694 | 0.678 | 0.74 | 0.761 | 0.999 | 0.789 | 0.906 | 1.01 |
